Reference: patent US20090312349A1, “ANTI-INFLAMMATORY MEDICAMENTS” (priority 2004, published 2009)
Like-named read-outs stand apart in the source and are kept apart here.

Tests used:
Format in all cases: biochemical
[1] = target: phosphorylated p-38-alpha kinase (Homo sapiens, UniProt Q16539); experiment: P-38 alpha kinase assay P1; details: Method P1; 2 h pre-incubation before ATP
KDR kinase = KDR kinase (Homo sapiens, UniProt P35968, DEL940-989/E990V); experiment: KDR kinase assay K1
Procedure: (§1) IC50 values were calculated from a series of percent inhibition values determined at a range of inhibitor concentrations using software routines as implemented in the GraphPad Prism software package.

B-Raf(V599E) kinase = B-Raf(V599E) kinase (Homo sapiens, UniProt P15056, V600E); experiment: B-Raf(V599E) kinase assay B1; details: for inhibition at 1 µM: read-out: Results, % @ concentration μM; for IC50: Method B1, construct 1
Chain of B-Raf(V599E) kinase (P15056 with tags, fused parts or gaps V600E): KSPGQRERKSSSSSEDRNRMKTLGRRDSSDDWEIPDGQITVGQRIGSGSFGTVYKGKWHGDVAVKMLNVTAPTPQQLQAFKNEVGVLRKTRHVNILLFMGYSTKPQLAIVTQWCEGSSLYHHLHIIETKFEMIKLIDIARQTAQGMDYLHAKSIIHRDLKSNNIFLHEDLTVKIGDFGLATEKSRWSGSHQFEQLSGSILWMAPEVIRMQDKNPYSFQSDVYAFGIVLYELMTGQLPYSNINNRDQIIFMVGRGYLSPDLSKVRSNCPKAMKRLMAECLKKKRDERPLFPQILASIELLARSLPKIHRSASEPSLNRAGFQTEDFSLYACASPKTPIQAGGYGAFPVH
Procedure: The test compounds were incubated with the reaction mixture at 30° C. for 2 h. […] The reaction rate was calculated using the 1.5 h to 2.5 h time frame. […] IC50 values were calculated from a series of percent inhibition values determined at a range of inhibitor concentrations using software routines as implemented in the GraphPad Prism software package.

Abl kinase = target: T1, Abl kinase (Homo sapiens, UniProt P00519); experiment: Abl kinase assay A1
T1 sequence (P00519 229-512): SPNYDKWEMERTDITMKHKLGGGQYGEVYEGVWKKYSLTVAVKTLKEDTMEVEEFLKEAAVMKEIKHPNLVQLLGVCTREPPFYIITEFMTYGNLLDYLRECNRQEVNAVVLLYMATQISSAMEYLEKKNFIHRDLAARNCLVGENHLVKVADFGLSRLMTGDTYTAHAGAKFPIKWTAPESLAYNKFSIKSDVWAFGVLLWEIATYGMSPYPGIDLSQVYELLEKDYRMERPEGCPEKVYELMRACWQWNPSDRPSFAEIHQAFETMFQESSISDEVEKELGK
Procedure: as §1

[2] = target: T2, phospho p-38 alpha kinase (Homo sapiens, UniProt Q16539); experiment: P-38 alpha kinase assay (spectrophotometric, pyruvate kinase/lactate dehydrogenase coupled); details: Table 5; for IC50: assay not named, read-out: uM
T2 construct: purchased Panvera
T2 sequence (Q16539 whole entry): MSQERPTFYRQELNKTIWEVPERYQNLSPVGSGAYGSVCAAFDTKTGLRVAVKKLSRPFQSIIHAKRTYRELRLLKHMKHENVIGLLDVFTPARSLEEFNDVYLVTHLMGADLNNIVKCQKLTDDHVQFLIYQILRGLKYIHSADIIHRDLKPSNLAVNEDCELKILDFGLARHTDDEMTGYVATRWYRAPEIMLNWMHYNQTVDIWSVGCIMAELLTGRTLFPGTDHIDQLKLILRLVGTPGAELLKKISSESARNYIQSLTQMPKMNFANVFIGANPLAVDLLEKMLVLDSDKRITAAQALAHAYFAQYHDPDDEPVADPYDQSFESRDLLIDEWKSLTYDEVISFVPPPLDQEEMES

[3] = read-out: Results, % @ concentration μM, Method K1, @ 10 μM
[4] = read-out: Results, % @ concentration μM, Method A1, @ 10 μM
[5] = Method A1, read-out: Results, μM (IC50)
[6] = read-out: Results, % @ concentration μM

Chain of phosphorylated p-38-alpha kinase (Q16539 1-360 isoform Q16539-2): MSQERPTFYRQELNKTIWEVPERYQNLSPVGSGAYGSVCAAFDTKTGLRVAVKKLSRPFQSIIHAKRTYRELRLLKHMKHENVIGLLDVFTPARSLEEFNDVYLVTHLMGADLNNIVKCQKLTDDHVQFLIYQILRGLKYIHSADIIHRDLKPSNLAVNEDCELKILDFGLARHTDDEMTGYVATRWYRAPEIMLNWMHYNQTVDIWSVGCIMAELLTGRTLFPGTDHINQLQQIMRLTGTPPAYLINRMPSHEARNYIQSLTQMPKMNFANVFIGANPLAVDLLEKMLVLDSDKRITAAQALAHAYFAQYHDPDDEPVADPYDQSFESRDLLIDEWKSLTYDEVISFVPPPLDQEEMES
Chain of KDR kinase (P35968 with tags, fused parts or gaps DEL940-989/E990V): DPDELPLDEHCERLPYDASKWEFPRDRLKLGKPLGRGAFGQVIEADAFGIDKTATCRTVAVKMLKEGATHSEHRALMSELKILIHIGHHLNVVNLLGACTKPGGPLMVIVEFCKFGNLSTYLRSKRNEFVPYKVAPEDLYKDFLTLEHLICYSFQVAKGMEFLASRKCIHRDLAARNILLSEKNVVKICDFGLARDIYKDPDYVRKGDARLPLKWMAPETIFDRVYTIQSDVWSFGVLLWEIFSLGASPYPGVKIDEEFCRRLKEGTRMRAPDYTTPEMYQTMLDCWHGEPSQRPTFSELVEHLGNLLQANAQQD

O=C(O)Cc1cccc(-n2nc(-c3ccccc3F)cc2NC(=O)Nc2cccc(Cl)c2Cl)c1 [Example 433, 2-(3-(5-(3-(2,3-dichlorophenyl)ureido)-3-(2-fluorophenyl)-1H-pyrazol-1-yl)phenyl)acetic acid]
IC50 [1]: 0.007 µM
inhibition at 10 µM (KDR kinase; [3]): 63%
inhibition at 1 µM (B-Raf(V599E) kinase): 37%
inhibition at 10 µM (Abl kinase; [4]): 39%

O=C(O)Cc1cccc(-n2nc(C3CCCC3)cc2NC(=O)Nc2cccc(Cl)c2Cl)c1 [Example 434, 2-(3-(3-cyclopentyl-5-(3-(2,3-dichlorophenyl)ureido)-1H-pyrazol-1-yl)phenyl)acetic acid]
IC50 [2]: 1.9 µM
IC50 [1]: 0.004 µM
IC50 (KDR kinase; Method K1): 2.9 µM
IC50 (B-Raf(V599E) kinase): 0.006 µM
IC50 (Abl kinase; [5]): 3.9 µM

CCOC(=O)Cc1ccc(-n2nc(C3CCCC3)cc2NC(=O)Nc2cccc(Cl)c2Cl)cc1 [Example 437, ethyl 2-(4-(3-cyclopentyl-5-(3-(2,3-dichlorophenyl)ureido)-1H-pyrazol-1-yl)phenyl)acetate]
inhibition at 10 µM (KDR kinase; [3]): 32%
IC50 (B-Raf(V599E) kinase): 0.16 µM
inhibition at 10 µM (Abl kinase; [4]): 21%

O=C(O)Cc1ccc(-n2nc(C3CCCC3)cc2NC(=O)Nc2cccc(Cl)c2Cl)cc1 [Example 441, 2-(4-(3-cyclopentyl-5-(3-(2,3-dichlorophenyl)ureido)-1H-pyrazol-1-yl)phenyl)acetic acid]
IC50 [1]: 0.005 µM
inhibition at 10 µM (KDR kinase; [3]): 62%
IC50 (B-Raf(V599E) kinase): 0.037 µM
inhibition at 10 µM (Abl kinase; [4]): 44%

NC(=O)Cc1cccc(-n2nc(-c3ccsc3)cc2NC(=O)Nc2cccc(Cl)c2Cl)c1 [Example 452, 1-(1-(3-(2-amino-2-oxoethyl)phenyl)-3-(thiophen-3-yl)-1H-pyrazol-5-yl)-3-(2,3-dichlorophenyl)urea]
IC50 [1]: 0.006 µM
inhibition at 1 µM (B-Raf(V599E) kinase): 45%
inhibition at 10 µM (Abl kinase; [4]): 37%

O=C(Nc1cccc(Cl)c1Cl)Nc1cc(-c2cccs2)nn1-c1cccc(CC(=O)N2CC[C@H](O)C2)c1 [Example 463, 1-(2,3-dichlorophenyl)-3-(1-(3-(2-((S)-3-hydroxypyrrolidin-1-yl)-2-oxoethyl)phenyl)-3-(thiophen-2-yl)-1H-pyrazol-5-yl)urea]
IC50 [2]: 0.056 µM
IC50 [1]: 0.025 µM
inhibition at 10 µM (KDR kinase; [3]): 47%
inhibition at 1 µM (B-Raf(V599E) kinase): 23%
inhibition at 10 µM (Abl kinase; [4]): 44%

CN(C)[C@@H]1CCN(C(=O)Cc2cccc(-n3nc(C(C)(C)C)cc3NC(=O)Nc3cccc(Cl)c3Cl)c2)C1 [Example 464, 1-(3-tert-butyl-1-(3-(2-((R)-3-(dimethylamino)pyrrolidin-1-yl)-2-oxoethyl)phenyl)-1H-pyrazol-5-yl)-3-(2,3-dichlorophenyl)urea]
inhibition at 10 µM (KDR kinase; [6]): 85%
inhibition at 10 µM (Abl kinase; [6]): 82%

CN(C)[C@H]1CCN(C(=O)Cc2cccc(-n3nc(C(C)(C)C)cc3NC(=O)Nc3cccc(Cl)c3Cl)c2)C1 [Example 465, 1-(3-tert-butyl-1-(3-(2-((S)-3-(dimethylamino)pyrrolidin-1-yl)-2-oxoethyl)phenyl)-1H-pyrazol-5-yl)-3-(2,3-dichlorophenyl)urea]
inhibition at 10 µM (KDR kinase; [6]): 91%
IC50 (Abl kinase): 1.2 µM

NC(=O)Cc1ccc(-n2nc(-c3ccccc3F)cc2NC(=O)Nc2cccc(Cl)c2Cl)cc1 [Example 466, 1-(1-(4-(2-amino-2-oxoethyl)phenyl)-3-(2-fluorophenyl)-1H-pyrazol-5-yl)-3-(2,3-dichlorophenyl)urea]
IC50 [2]: 0.007 µM
IC50 [1]: 0.038 µM
inhibition at 10 µM (KDR kinase; [3]): 50%
inhibition at 1 µM (B-Raf(V599E) kinase): 24%
IC50 (Abl kinase; [5]): 1.2 µM

NC(=O)Cc1ccc(-n2nc(-c3ccsc3)cc2NC(=O)Nc2cccc(Cl)c2Cl)cc1 [Example 469, 1-(1-(4-(2-amino-2-oxoethyl)phenyl)-3-(thiophen-3-yl)-1H-pyrazol-5-yl)-3-(2,3-dichlorophenyl)urea]
IC50 [1]: 0.009 µM
inhibition at 1 µM (B-Raf(V599E) kinase): 43%
inhibition at 10 µM (Abl kinase; [4]): 22%

CC(C)(C)c1cc(NC(=O)Nc2cccc(Cl)c2Cl)n(-c2ccc(CC(=O)N3CCCC(C(=O)O)C3)cc2)n1 (centres unmarked) [Example 476, 1-(2-(4-(3-tert-butyl-5-(3-(2,3-dichlorophenyl)ureido)-1H-pyrazol-1-yl)phenyl)acetyl)piperidine-3-carboxylic acid]
IC50 [2]: 0.024 µM
IC50 [1]: 0.006 µM
IC50 (B-Raf(V599E) kinase): 0.041 µM
IC50 (Abl kinase; [5]): 8.4 µM

CC(C)(C)c1cc(NC(=O)Nc2cccc(Cl)c2Cl)n(-c2ccc(CC(=O)N3CC[C@H](O)C3)cc2)n1 [Example 478, (S)-1-(3-tert-butyl-1-(4-(2-(3-hydroxypyrrolidin-1-yl)-2-oxoethyl)phenyl)-1H-pyrazol-5-yl)-3-(2,3-dichlorophenyl)urea]
IC50 [1]: 0.006 µM
inhibition at 10 µM (KDR kinase; [3]): 99%
IC50 (B-Raf(V599E) kinase): 0.028 µM
inhibition at 10 µM (Abl kinase; [4]): 91%

CN(C)[C@@H]1CCN(C(=O)Cc2ccc(-n3nc(C(C)(C)C)cc3NC(=O)Nc3cccc(Cl)c3Cl)cc2)C1 [Example 480, (R)-1-(3-tert-butyl-1-(4-(2-(3-(dimethylamino)pyrrolidin-1-yl)-2-oxoethyl)phenyl)-1H-pyrazol-5-yl)-3-(2,3-dichlorophenyl)urea]
inhibition at 10 µM (KDR kinase; [3]): 92%
IC50 (B-Raf(V599E) kinase): 0.029 µM
inhibition at 10 µM (Abl kinase; [4]): 94%

CN(C)[C@@H]1CCN(C(=O)Cc2ccc(-n3nc(C(C)(C)C)cc3NC(=O)Nc3cccc(Cl)c3Cl)cc2)C1 [Example 481, (R)-1-(3-tert-butyl-1-(4-(2-(3-(dimethylamino)pyrrolidin-1-yl)-2-oxoethyl)phenyl)-1H-pyrazol-5-yl)-3-(2,3-dichlorophenyl)urea]
Results, % @ concentration μM (KDR kinase; Method K1, @ 10 μM): 102% @10
IC50 (B-Raf(V599E) kinase): 0.041 µM
Results, % @ concentration μM (Abl kinase; Method A1, @ 10 μM): 93% @10

CC(C)(C)c1cc(NC(=O)Nc2cccc(Cl)c2Cl)n(-c2cccc(CN3C(=O)NC(=O)C3=O)c2)n1 [Example 482, 1-(3-tert-butyl-1-(3-((2,4,5-trioxoimidazolidin-1-yl)methyl)phenyl)-1H-pyrazol-5-yl)-3-(2,3-dichlorophenyl)urea]
IC50 [2]: 0.084 µM
IC50 (KDR kinase; Method K1): 1.4 µM
IC50 (B-Raf(V599E) kinase): 0.0038 µM
IC50 (Abl kinase; [5]): 3.2 µM

O=C(Nc1ccc(F)c(F)c1F)Nc1cc(-c2cccs2)nn1-c1cccc(CO)c1 [Example 493, 1-(1-(3-(hydroxymethyl)phenyl)-3-(thiophen-2-yl)-1H-pyrazol-5-yl)-3-(2,3,4-trifluorophenyl)urea]
% @ concentration, uM ([2]; @ 1 uM): 36%
% @ concentration, uM ([2]; @ 10 uM): 73%
inhibition at 10 µM (KDR kinase; [3]): 82%
inhibition at 1 µM (Abl kinase; read-out: Results, % @ concentration μM, Method A1, @ 1 μM): 17%

CC(C)(C)c1cc(NC(=O)Nc2cccc(F)c2F)n(-c2cccc(CC(N)=O)c2)n1 [Example 495, 1-(1-(3-(2-amino-2-oxoethyl)phenyl)-3-tert-butyl-1H-pyrazol-5-yl)-3-(2,3-difluorophenyl)urea]
IC50 [2]: 0.25 µM
IC50 [1]: 0.038 µM
IC50 (B-Raf(V599E) kinase): 0.009 µM
IC50 (Abl kinase; [5]): 7.6 µM

CC(C)(C)c1cc(NC(=O)Nc2ccc(F)cc2F)n(-c2cccc(CC(N)=O)c2)n1 [Example 496, 1-(1-(3-(2-amino-2-oxoethyl)phenyl)-3-tert-butyl-1H-pyrazol-5-yl)-3-(2,4-difluorophenyl)urea]
IC50 (KDR kinase; Method K1): 2.4 µM
IC50 (B-Raf(V599E) kinase): 0.01 µM
inhibition at 10 µM (Abl kinase; [4]): 66%

CC(C)(C)c1cc(NC(=O)Nc2ccc(F)cc2F)n(-c2ccc(CC(=O)O)cc2)n1 [Example 497, 2-(4-(3-tert-butyl-5-(3-(2,4-difluorophenyl)ureido)-1H-pyrazol-1-yl)phenyl)acetic acid]
inhibition at 10 µM (KDR kinase; [3]): 43%
IC50 (B-Raf(V599E) kinase): 0.045 µM
inhibition at 10 µM (Abl kinase; [4]): 30%

NC(=O)Cc1cccc(-n2nc(-c3ccccc3)cc2NC(=O)Nc2cccc(Oc3cccnc3)c2)c1 [Example 501, 1-(1-(3-(2-amino-2-oxoethyl)phenyl)-3-phenyl-1H-pyrazol-5-yl)-3-(3-(pyridin-3-yloxy)phenyl)urea]
IC50 [1]: 0.076 µM
IC50 (KDR kinase; Method K1): 1.6 µM
IC50 (Abl kinase; [5]): 2.5 µM

CC(C)(C)c1cc(NC(=O)Nc2cccc(Oc3cnccn3)c2)n(-c2cccc(CC(N)=O)c2)n1 [Example 504, 1-(1-(3-(2-amino-2-oxoethyl)phenyl)-3-tert-butyl-1H-pyrazol-5-yl)-3-(3-(pyrazin-2-yloxy)phenyl)urea]
IC50 [1]: 0.082 µM
IC50 (KDR kinase; Method K1): 0.049 µM
IC50 (B-Raf(V599E) kinase): 0.043 µM
IC50 (Abl kinase): 0.063 µM

CC(C)(C)c1cc(NC(=O)Nc2cccc(-c3cccnc3)c2)n(-c2cccc(CC(N)=O)c2)n1 [Example 507, 1-(1-(3-(2-amino-2-oxoethyl)phenyl)-3-tert-butyl-1H-pyrazol-5-yl)-3-(3-(pyridin-3-yl)phenyl)urea]
IC50 [2]: 0.007 µM
IC50 [1]: 0.18 µM
IC50 (B-Raf(V599E) kinase): 0.035 µM
IC50 (Abl kinase; [5]): 23.3 µM

CC(C)(C)c1cc(NC(=O)Nc2cccc(-c3ccc(N)nc3)c2)n(-c2cccc(CC(N)=O)c2)n1 [Example 508, 1-(1-(3-(2-amino-2-oxoethyl)phenyl)-3-tert-butyl-1H-pyrazol-5-yl)-3-(3-(6-aminopyridin-3-yl)phenyl)urea]
IC50 [2]: 0.052 µM
IC50 [1]: 0.33 µM
IC50 (B-Raf(V599E) kinase): 0.02 µM
inhibition at 10 µM (Abl kinase; [4]): 32%
